Assay type in all cases: biochemical
Common to all, as to settings: inhibit 50% of activity at 50 μM

For one assay, the target named is T1, TYK2 (Homo sapiens, UniProt P29597).
T1 construct: The kinase domain of humanTYK2 was amplified from A549 mRNA; His tag (from pBlueBacHis2A vector; nickel chelate purification) (N); made in house; host or cells: baculovirus; virus made in Sf9, large-scale expression in High Five insect cells
T1 sequence (P29597 897-1176 limits assumed): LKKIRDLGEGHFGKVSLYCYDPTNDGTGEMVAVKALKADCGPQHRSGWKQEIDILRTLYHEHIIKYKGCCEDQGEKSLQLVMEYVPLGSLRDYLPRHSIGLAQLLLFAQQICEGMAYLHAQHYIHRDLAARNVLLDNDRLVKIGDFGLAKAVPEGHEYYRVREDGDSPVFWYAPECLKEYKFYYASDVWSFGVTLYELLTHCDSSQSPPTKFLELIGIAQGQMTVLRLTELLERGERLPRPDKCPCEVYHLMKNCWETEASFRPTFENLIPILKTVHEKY
Briefly: TYK2 kinase domain capture-based ELISA kinase assay. Summed up: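 His-tagged human TYK2 kinase domain expressed in baculovirus-infected insect cells and Ni-affinity purified. Biotinylated peptide substrate (5 μM final); phosphotyrosine captured on avidin plate and detected by peroxidase-linked PY20 antibody ELISA.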
A general note: In an ELISA, binding on a coated surface is turned into a signal by an enzyme label.

The target in another assay is T2, JAK3 (Homo sapiens, UniProt P52333).
T2 construct: The kinase domain of humanJAK3 was amplified from U937mRNA; His tag (from pFastBac HTb vector; nickel chelate purification) (N); made in house; host or cells: baculovirus; virus made in Sf9, large-scale expression in High Five insect cells
T2 sequence (P52333 822-1111 limits assumed): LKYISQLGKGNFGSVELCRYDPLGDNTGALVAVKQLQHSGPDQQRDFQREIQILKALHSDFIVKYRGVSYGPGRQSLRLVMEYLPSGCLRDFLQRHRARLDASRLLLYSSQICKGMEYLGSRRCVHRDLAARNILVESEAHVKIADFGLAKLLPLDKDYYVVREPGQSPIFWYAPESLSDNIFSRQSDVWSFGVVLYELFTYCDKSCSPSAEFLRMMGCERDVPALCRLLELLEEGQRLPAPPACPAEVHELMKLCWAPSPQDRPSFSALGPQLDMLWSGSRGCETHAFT
Kind of assay: JAK3 kinase domain capture-based ELISA kinase assay. Summed up: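 The human JAK3 kinase domain was His-tagged, baculovirus-expressed in High Five cells and nickel-affinity purified. Tyrosine phosphorylation was quantified on avidin-coated ELISA plates with peroxidase-linked anti-phosphotyrosine antibody PY20.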

Another assay has as its target T3, JAK1 (Homo sapiens, UniProt P23458).
T3 construct: The kinase domain of humanJAK1 was amplified from U937mRNA; His tag (from pFastBac HTb vector; nickel chelate purification) (N); made in house; host or cells: baculovirus; virus made in Sf9, large-scale expression in High Five insect cells
Briefly: JAK1 kinase domain capture-based ELISA kinase assay. Summed up:
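His-tagged human JAK1 kinase domain was expressed via baculovirus in High Five insect cells and purified on nickel chelate resin. Phosphotyrosine was quantified by ELISA with peroxidase-linked PY20 after capture on avidin plates.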

The target of the next assay is T4, JAK2 (Homo sapiens, UniProt O60674).
T4 construct: The kinase domain of humanJAK2 was amplified from U937mRNA; His tag (from pFastBac HTc vector; nickel chelate purification) (N); made in house; host or cells: baculovirus; virus made in Sf9, large-scale expression in High Five insect cells
T4 sequence (O60674 849-1124 limits assumed): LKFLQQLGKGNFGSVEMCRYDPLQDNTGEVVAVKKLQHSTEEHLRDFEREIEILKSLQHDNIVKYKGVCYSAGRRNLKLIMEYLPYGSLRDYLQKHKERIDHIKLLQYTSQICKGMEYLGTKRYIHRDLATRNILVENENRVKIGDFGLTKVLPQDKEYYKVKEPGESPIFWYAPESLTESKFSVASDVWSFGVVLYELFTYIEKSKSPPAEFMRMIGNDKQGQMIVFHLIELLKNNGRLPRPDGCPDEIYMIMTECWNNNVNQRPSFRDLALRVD
Briefly: JAK2 kinase domain capture-based ELISA kinase assay. Summed up: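 His-tagged human JAK2 kinase domain was baculovirus-expressed in High Five insect cells and nickel-purified. Phosphotyrosine was captured on avidin plates and detected by ELISA with peroxidase-linked PY20.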

What is called IC50 is the concentration at which inhibition is half-maximal. High values mean a need for much substance, low ones inhibition by little substance.

T3 sequence (P23458 875-1153 limits assumed): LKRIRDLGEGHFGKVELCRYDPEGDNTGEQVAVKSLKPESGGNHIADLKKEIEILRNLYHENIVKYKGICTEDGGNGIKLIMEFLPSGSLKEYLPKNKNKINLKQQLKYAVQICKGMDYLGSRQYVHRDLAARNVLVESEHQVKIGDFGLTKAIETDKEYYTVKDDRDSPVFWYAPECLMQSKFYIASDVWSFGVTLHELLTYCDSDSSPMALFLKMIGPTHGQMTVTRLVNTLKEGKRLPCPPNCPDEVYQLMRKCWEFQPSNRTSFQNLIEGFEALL

Take `COc1cncc(-c2cncc(NCc3ccc(F)cc3)n2)c1` [CYT24108]: the IC50 against TYK2 (Table 3), on JAK3 (Table 3), on JAK1 (Table 3) and on JAK2 (Table 3) was below 50 µM in each case.

For the molecule `COc1cncc(-c2cncc(N[C@@H](C)c3ccccc3)n2)c1` [CYT24510], the IC50 at TYK2 (Table 3), against JAK3 (Table 3), on JAK1 (Table 3) and on JAK2 (Table 3) was below 50 µM throughout.

In the case of `c1ccc(-c2cc(Nc3ccc4[nH]ccc4c3)c3nccn3c2)cc1`, the IC50 against TYK2 (Table 5), against JAK3 (Table 5), on JAK1 (Table 5) and on JAK2 (Table 5) was below 50 µM each time.

As to `CCN(CCO)c1ccc(Nc2nc(Br)cn3ccnc23)cc1` [drawing 83], the IC50 against TYK2 (Table 5), at JAK3 (Table 5), against JAK1 (Table 5) and on JAK2 (Table 5) was below 50 µM each time.

For the molecule `Cc1ccc(S(=O)(=O)Nc2ccc(Nc3nc(-c4ccc(CCC(=O)O)cc4)cn4ccnc34)cc2)cc1`, the IC50 is below 50 µM against TYK2 (Table 6), above 50 µM on JAK3 (Table 6), below 50 µM on JAK1 (Table 6) and below 50 µM on JAK2 (Table 6).

For `COc1ccc(Nc2nc(-c3ccccc3F)cn3ccnc23)cn1`, the IC50 at TYK2 (Table 6) was above 50 µM; at JAK3 (Table 6) it was above 50 µM; on JAK1 (Table 6) it was below 50 µM; at JAK2 (Table 6), below 50 µM.

`CCCC/C=C/c1cn2ccnc2c(Nc2ccc(N(CC)CCO)cc2)n1`: the IC50 on TYK2 (Table 6), on JAK3 (Table 6), on JAK1 (Table 6) and on JAK2 (Table 6) was below 50 µM throughout.

Regarding `c1cc(-c2cn3ccnc3c(Nc3ccc(N4CCOCC4)cc3)n2)ccn1` [drawing 120], the IC50 on TYK2 (Table 6) was below 50 µM; at JAK3 (Table 6) it was above 50 µM; at JAK1 (Table 6), below 50 µM; on JAK2 (Table 6), below 50 µM.

Take `CC(C)[C@H](CO)Nc1nc(-c2ccc(C(=O)O)cc2)cn2ccnc12`: the IC50 against TYK2 (Table 6) is above 50 µM; on JAK3 (Table 6), below 50 µM; at JAK1 (Table 6) it was above 50 µM; against JAK2 (Table 6), below 50 µM.

`COc1ccc(N2CCN(c3cncc(-c4ccc(CC(N)C(=O)O)cc4)n3)CC2)cc1OC` (centres unmarked) [CYT34205]: the IC50 against TYK2 (Table 3), against JAK3 (Table 3), on JAK1 (Table 3) and at JAK2 (Table 3) was below 50 µM throughout.

Regarding `O=C(O)c1ccc(-c2cn3ccnc3c(N3CCN(c4ccccn4)CC3)n2)cc1`, the IC50 was above 50 µM against TYK2 (Table 6), above 50 µM at JAK3 (Table 6), below 50 µM on JAK1 (Table 6) and above 50 µM at JAK2 (Table 6).

In the case of `COc1cc(-c2cncc(N[C@H](C)c3ccccc3)n2)cc(OC)c1OC` [CYT32107], the IC50 at TYK2 (Table 3), against JAK3 (Table 3), against JAK1 (Table 3) and at JAK2 (Table 3) was below 50 µM in each case.

With `Oc1cccc(-c2cn3ccnc3c(N3CCOCC3)n2)c1`, the IC50 against TYK2 (Table 6) was above 50 µM; on JAK3 (Table 6), above 50 µM; against JAK1 (Table 6) it was above 50 µM; on JAK2 (Table 6), below 50 µM.

As for `Cc1ccc(S(=O)(=O)Nc2ccc(Nc3nc(-c4cccc(C(=O)NCCN(C)C)c4)cn4ccnc34)cc2)cc1`, the IC50 at TYK2 (Table 6) is above 50 µM; against JAK3 (Table 6), above 50 µM; against JAK1 (Table 6) it was below 50 µM; against JAK2 (Table 6), below 50 µM.

Consider `CCN(CCO)c1ccc(Nc2nc(-c3cc(C(F)(F)F)cc(C(F)(F)F)c3)cn3ccnc23)cc1`, for which the IC50 at TYK2 (Table 6) is above 50 µM; against JAK3 (Table 6), above 50 µM; on JAK1 (Table 6), above 50 µM; at JAK2 (Table 6), below 50 µM.

Consider `Cc1ccc(S(=O)(=O)Nc2ccc(Nc3nc(-c4cccc(N)c4)cn4ccnc34)cc2)cc1`, for which the IC50 is below 50 µM at TYK2 (Table 6), above 50 µM on JAK3 (Table 6), below 50 µM against JAK1 (Table 6) and below 50 µM against JAK2 (Table 6).

As to `COc1cncc(-c2cncc(NCc3ccco3)n2)c1` [CYT20406], the IC50 against TYK2 (Table 3), against JAK3 (Table 3), against JAK1 (Table 3) and on JAK2 (Table 3) was below 50 µM in each case.
